{"source": "paper PMC3605511", "about": "“Tumor P-Glycoprotein Correlates with Efficacy of PF-3758309 in in vitro and in vivo Models of Colorectal Cancer” (Frontiers in Pharmacology, 2013)", "key": {"HCT15": {"test_system": "HCT15", "test": "Cell proliferation assay, HCT15", "type": "cell-based", "conditions": "Homo sapiens, HCT-15", "procedure": "(§1) Cytotoxic/proliferation effects were determined using the sulforhodamine B (SRB) assay (Skehan et al., [1990]) or by resazurin. Briefly, cells in logarithmic growth phase were transferred to 96 well flat bottom plates with lids. One-hundred microliter cell suspensions containing 1500–5000 viable cells were plated into each well and incubated overnight prior to exposure with increasing concentrations of PF-309 for 3–5 days, dependent upon cell type. Media was removed and cells were fixed with cold 10% trichloroacetic acid for 30 min at 4°C. Cells were then washed with water and stained with 0.4% SRB (Fisher Sci., Pittsburgh, PA, USA) for 30 min at room temperature, washed again with 1% acetic acid, followed by stain solubilization with 10 mM tris at room temperature. The plate was then read on a plate reader (Biotek Synergy 2, Winooski, VT, USA) set at an absorbance wavelength of 565 nm. Cell proliferation curves were derived from the raw absorbance (OD) data.\n(§2) Since PF-309 appeared to be a strong P-gp and BCRP substrates, we sought to evaluate if the transporters influenced sensitivity in vitro. We evaluated the sensitivity of CRC cell lines to PF-309 treatment in a panel of 27 lines. Cells were exposed to PF-309 at a range of concentrations for 72 h and cell content measured by SRB assay (see Pitts et al., [2013]). […]"}, "P-gp": {"biological_target": "T1, P-gp (Homo sapiens, UniProt P08183)", "T1 construct": "expressed in transfected cells; host or cells: MDR1-MDCK cells (canine kidney MDCK)", "T1 sequence (P08183 whole entry)": "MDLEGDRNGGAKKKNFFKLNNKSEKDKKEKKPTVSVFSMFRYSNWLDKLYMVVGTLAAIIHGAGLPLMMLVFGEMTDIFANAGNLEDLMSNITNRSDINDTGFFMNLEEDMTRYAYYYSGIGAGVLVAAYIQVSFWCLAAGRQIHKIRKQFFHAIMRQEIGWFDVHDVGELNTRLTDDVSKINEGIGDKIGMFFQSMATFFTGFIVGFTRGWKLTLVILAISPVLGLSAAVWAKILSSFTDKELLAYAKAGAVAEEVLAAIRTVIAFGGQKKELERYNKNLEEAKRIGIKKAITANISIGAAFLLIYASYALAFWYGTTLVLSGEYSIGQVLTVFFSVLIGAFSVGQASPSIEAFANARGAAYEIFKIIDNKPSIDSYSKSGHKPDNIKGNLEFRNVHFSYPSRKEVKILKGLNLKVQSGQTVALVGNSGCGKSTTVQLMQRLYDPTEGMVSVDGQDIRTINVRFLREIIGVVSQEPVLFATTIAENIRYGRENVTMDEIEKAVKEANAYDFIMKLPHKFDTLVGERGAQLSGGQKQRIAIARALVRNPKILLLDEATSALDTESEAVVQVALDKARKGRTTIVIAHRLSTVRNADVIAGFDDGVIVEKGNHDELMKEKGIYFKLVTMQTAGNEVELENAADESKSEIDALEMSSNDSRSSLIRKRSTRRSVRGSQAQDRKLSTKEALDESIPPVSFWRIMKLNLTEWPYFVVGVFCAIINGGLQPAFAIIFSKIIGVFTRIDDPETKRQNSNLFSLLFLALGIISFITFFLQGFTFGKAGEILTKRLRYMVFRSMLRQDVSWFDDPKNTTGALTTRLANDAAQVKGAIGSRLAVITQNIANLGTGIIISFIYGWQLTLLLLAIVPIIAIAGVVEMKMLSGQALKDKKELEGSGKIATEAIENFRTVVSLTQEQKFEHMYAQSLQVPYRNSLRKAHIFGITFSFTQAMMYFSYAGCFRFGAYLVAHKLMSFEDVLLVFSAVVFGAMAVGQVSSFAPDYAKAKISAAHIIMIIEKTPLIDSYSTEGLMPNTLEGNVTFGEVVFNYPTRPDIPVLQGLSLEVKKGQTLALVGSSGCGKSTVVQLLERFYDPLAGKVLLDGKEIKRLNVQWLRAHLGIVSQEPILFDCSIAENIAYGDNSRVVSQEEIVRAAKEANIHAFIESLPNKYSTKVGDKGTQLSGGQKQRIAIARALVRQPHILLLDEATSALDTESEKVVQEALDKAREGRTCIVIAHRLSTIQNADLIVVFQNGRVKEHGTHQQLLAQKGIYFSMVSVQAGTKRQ", "test": "MDR1-MDCK transwell assay (P-gp efflux)", "type": "in vitro ADME", "conditions": "dog, ratio of B → A flux to A → B flux, >2 = substrate", "procedure": "Permeability and transporter substrate assays were performed as previously published (Feng et al., [2008]; Callegari et al., [2011]; Di et al., [2011]). Permeability assays were conducted in MDCKII-LE cells, which were generated by isolation of a subpopulation of cells with low expression of endogenous P-gp (Feng et al., [2008]; Callegari et al., [2011]; Di et al., [2011]). The use of MDCKII-LE cells are used to measure the passive permeability of compounds in place of MDCK wild-type or Caco-2 cells since both MDCK wild-type and Caco-2 cells are known to have some level of endogenous transporter expression which can affect the permeability measurement. P-gp efflux was determined in MDR1-MDCK cells and BCRP efflux was measured in BCRP-MDCKII-LE cells.\nMDR1-MDCK and BCRP-MDCKII-LE transwell assays measure the effect of P-gp and BCRP, respectively, on transcellular flux. The efflux ratio, ratio of the B → A flux to the A → B flux, of PF-309 was measured to be 34.9 ± 7.9 in the MDR1-MDCK assay, indicating it is a strong substrate for P-gp. PF-309 was also determined to be substrate for BCRP as the efflux ratio was measured to be 7.6 ± 1.1. As a reference, compounds with efflux ratios >2 are considered to be substrates (Callegari et al., [2011])."}, "RKO": {"test_system": "RKO", "test": "Cell proliferation assay, RKO", "type": "cell-based", "conditions": "Homo sapiens, 72 h, SRB assay", "procedure": "as §1, §2"}, "CUCRC036 CRC PDTX model": {"test_system": "CUCRC036 CRC PDTX model", "test": "Patient derived tumor xenograft efficacy, CUCRC036", "type": "in vivo, mice", "conditions": "25 mg/kg orally twice daily, 22–56 days, end of study tumor volumes", "procedure": "(§3) For patient tumor xenografts, surgical specimens of patients undergoing either removal of a primary or metastatic tumor at the University of Colorado Hospital are implanted subcutaneously into five mice for each patient with a 10-G trochar. After a subsequent growth and passage in mice, tumors are excised, and expanded into cohorts for treatment (n = 6–15 per group). Mice were treated with PF-309 or vehicle (0.5% methylcellulose) for 22–56 days (until control tumor volume reach ∼1500 mm^3) twice daily (BID) by oral gavage (PO). Monitoring of mice and measurements of tumors were conducted as described above. % Growth Inhibition= (average control volume−average treated volume)/average control volume×100% In addition to the cell line xenografts, we also treated 12 different patient derived tumor xenograft (PDTX) CRC models with PF-309 (Figure 6). We were unable to assess how ABCB1 gene expression correlated with efficacy in these models. The PDTX models are propagated in vivo, are not immortalized, and are not grown in in vitro culture. […] Tumor and plasma sample pairs were collected from animals at the end of study for eight tumor models (three cell line xenografts and five PDTX models) and concentrations of PF-309 were measured. […]"}, "HCT116": {"test_system": "HCT116", "test": "Cell proliferation assay, HCT116", "type": "cell-based", "conditions": "Homo sapiens, HCT-116; HCT116, 72 h, SRB assay", "procedure": "as §1, §2"}, "CUCRC047 CRC PDTX model": {"test_system": "CUCRC047 CRC PDTX model", "test": "Patient derived tumor xenograft efficacy, CUCRC047", "type": "in vivo, mice", "conditions": "25 mg/kg orally twice daily, 22–56 days, end of study tumor volumes", "procedure": "as §3"}, "SW48": {"test_system": "SW48", "test": "Cell proliferation assay, SW48", "type": "cell-based", "conditions": "Homo sapiens; SW48, 72 h, SRB assay", "procedure": "as §1, §2"}}, "note": "Read-outs that look alike come from different tables or passages of the source.", "data": [{"smiles": "Cc1nc(Nc2n[nH]c3c2CN(C(=O)N[C@H](CN(C)C)c2ccccc2)C3(C)C)c2sccc2n1", "note": "[PF-309]", "values": [{"measurement": "IC50", "setting": "HCT15; HCT15, 72 h, SRB assay, read-out: IC50", "value": "> 1000", "unit": "nM"}, {"measurement": "IC50", "setting": "HCT15; HCT15, PF-309 alone, 72 h (Table 2), read-out: PF-309 IC50", "value": 780, "unit": "nM"}, {"measurement": "efflux ratio", "setting": "P-gp", "value": "34.9 ± 7.9"}, {"measurement": "IC50", "setting": "RKO", "value": "3.6 ± 0.1", "unit": "nM"}, {"measurement": "% Growth inhibition", "setting": "CUCRC036 CRC PDTX model", "value": 35, "unit": "%"}, {"measurement": "IC50", "setting": "HCT116", "value": "4.7 ± 0.9", "unit": "nM"}, {"measurement": "% Growth inhibition", "setting": "CUCRC047 CRC PDTX model", "value": "−24", "unit": "%"}, {"measurement": "IC50", "setting": "SW48", "value": "11.9 ± 4.4", "unit": "nM"}]}]}
